system: MT4; assay: Ability to block replication of HIV-1 virus in MT-4 cells; conditions: Homo sapiens

| SMILES | IC50 |
| --- | --- |
| CC(C)=CCN1Cc2cccc3nc(N(C)C)n(c23)CC1C (stereo unspecified) | > 250 µM |
| CCCN1Cc2cccc3[nH]c(Cl)c(c23)CC1C (stereo unspecified) | > 50 µM |
| CCC(=CCN1Cc2cc(Cl)cc3nc(S)n(c23)CC1C)CC (stereo unspecified) | 0.012 µM |
| CC(C)=CCN1Cc2cccc3nc(Sc4ccccc4)n(c23)CC1C (stereo unspecified) | > 50 µM |
| CC1CN2c3c(cc(Cl)cc3NS2(=O)=O)CN1CC1CC1 (stereo unspecified) | > 10 µM |
| CCCN1Cc2cccc3[nH]c(=O)c(=O)n(c23)CC1C (stereo unspecified) | > 250 µM |
| CC1CN2C(=O)CNc3cc(Cl)cc(c32)CN1CC1CC1 (stereo unspecified) | > 10 µM |
| C=C(C)CN1Cc2cccc3ncn(c23)CC1C (stereo unspecified) | > 2 µM |
| CC1Cn2c(=O)oc3cccc(c32)CN1CC1CCC1 (stereo unspecified) | > 2 µM |
| CNc1nc2cccc3c2n1CC(C)N(CC=C(C)C)C3 (stereo unspecified) | > 250 µM |
| C=CCn1c(=O)n2c3c(cccc31)CN(CCC)C(C)C2 (stereo unspecified) | > 50 µM |
| CCCN1Cc2cccc3c2n(c(=O)n3C)CC1C (stereo unspecified) | > 250 µM |
| C/N=C(/S)N1CC(C)N(CC2CC2)Cc2cc(Cl)ccc21 (stereo unspecified) | > 10 µM |
| CCCN1Cc2cccc3[nH]cc(c23)CC1C (stereo unspecified) | > 250 µM |
| C=C(C)CN1Cc2cccc3c2C(CC1C)C(S)=N3 (stereo unspecified) | > 10 µM |
| CC1Cn2c(O)nc3cc(Cl)cc(c32)CN1CC1CCC1 (stereo unspecified) | 0.38 µM |
| CCCN1Cc2cccc3c2n(c(=O)n3CC#N)CC1C (stereo unspecified) | > 250 µM |
| CC1Cn2c(S)nc3cc(Cl)cc(c32)CN1CCC1CC1 (stereo unspecified) | 0.42 µM |
| CC(C)=CCN1Cc2cc(Cl)cc3[nH]c(=O)n(c23)C[C@H]1C | 4.2 µM |
| CC(C)=CCN1Cc2cc(Cl)cc3[nH]c(=S)n(c23)C[C@@H]1C | 0.039 µM |
| CCCN1Cc2cccc3c2N(CC1C)C(=O)C3 (stereo unspecified) | > 250 µM |
| CC(C)=CCN1Cc2cc(Cl)cc3nc([SeH])n(c23)CC1C (stereo unspecified) | 0.018 µM |
| COC(=O)Nc1nc2cc(Cl)cc3c2n1C[C@@H](C)N(CC=C(C)C)C3 | > 10 µM |

| SMILES | IC50 |
| --- | --- |
| CCC(=CCN1Cc2cc(Cl)cc3nc(O)n(c23)CC1C)CC (stereo unspecified) | 0.029 µM |
| C=CCN1Cc2cccc3c2C(CC1C)C(S)=N3 (stereo unspecified) | > 250 µM |
| C=C(C)CN1Cc2cccc3c2C(O)(CC1C)C(=O)N3 (stereo unspecified) | > 250 µM |
| COc1nc2cccc3c2n1CC(C)N(CC=C(C)C)C3 (stereo unspecified) | > 250 µM |
| CC1Cn2c(O)nc3cc(Cl)cc(c32)CN1CCC1CC1 (stereo unspecified) | 2.2 µM |
| CCCN1Cc2cccc3c2n(c(=O)n3C(C)C)CC1C (stereo unspecified) | > 250 µM |
| CC1Cn2c(S)nc3cc(Cl)cc(c32)CN1CC1CCC1 (stereo unspecified) | 0.026 µM |
| CC1Cn2c(N=C(N)N)nc3cc(Cl)cc(c32)CN1CC1CC1 (stereo unspecified) | > 50 µM |
| CC(C)=CCN1Cc2cc(Cl)cc3nc(NC#N)n(c23)CC1C (stereo unspecified) | > 250 µM |
| CC1Cn2c(O)nc3cccc(c32)CN1CC1CC1 (stereo unspecified) | 10 µM |
| CC(C)=CCN1Cc2cc(Cl)cc3nc(S)n(c23)C[C@H]1C | 0.39 µM |
| C=C(C)CN1Cc2cccc3c2C(CC1C)C(=O)N3 (stereo unspecified) | > 50 µM |
| CCCN1Cc2cccc3nnn(c23)CC1C (stereo unspecified) | > 10 µM |
| CC(C)=CCN1Cc2cccc3[nH]c(=S)n(c23)C[C@@H]1C | 0.097 µM |
| C=C(C)CN1Cc2cccc3[nH]c(=O)n(c23)CC1C (stereo unspecified) | 15.2 µM |
| C=C(C)CN1Cc2cccc3nc(S)n(c23)CC1C (stereo unspecified) | 0.026 µM |
| CCCN1Cc2cccc3[nH]c(=O)n(c23)CC1C (stereo unspecified) | 60 µM |
| CC(C)=CCN1Cc2cccc3nc(O)n(c23)CC1C (stereo unspecified) | 9.8 µM |
| CC1Cn2c(S)nc3cccc(c32)CN1CC1CC1 (stereo unspecified) | 0.06 µM |
| CCCN1Cc2cccc3[nH]c(=S)n(c23)CC1C (stereo unspecified) | 1.7 µM |
| CC(C)=CCN1Cc2cc(Cl)cc3[nH]c(=O)n(c23)C[C@@H]1C | 0.18 µM |
| O=c1[nH]cnc2c1ncn2[C@H]1CC[C@@H](CO)O1 [DIDANOSINE] | 5.5 µM |
| Cc1cn([C@H]2C[C@H](N=[N+]=[N-])[C@@H](CO)O2)c(=O)[nH]c1=O [ZIDOVUDINE] | 0.004 µM |

— ChEMBL document CHEMBL1125787, “Synthesis and anti-HIV-1 activity of 4,5,6,7-tetrahydro-5-methylimidazo[4,5,1-jk][1,4]benzodiazepin-2(1H)-on e (TIBO) derivatives. 2” (J Med Chem, 1991)
